{
  "source": "patent US11680056B2",
  "about": "“MK2 inhibitors and uses thereof” (Xinthera, Inc., priority 2021, dated 2023)",
  "key": {"p38a/PRAK": {"molecular_target": "p38a/PRAK (Homo sapiens (Human), UniProt Q16539)", "sequence (Q16539 whole entry)": "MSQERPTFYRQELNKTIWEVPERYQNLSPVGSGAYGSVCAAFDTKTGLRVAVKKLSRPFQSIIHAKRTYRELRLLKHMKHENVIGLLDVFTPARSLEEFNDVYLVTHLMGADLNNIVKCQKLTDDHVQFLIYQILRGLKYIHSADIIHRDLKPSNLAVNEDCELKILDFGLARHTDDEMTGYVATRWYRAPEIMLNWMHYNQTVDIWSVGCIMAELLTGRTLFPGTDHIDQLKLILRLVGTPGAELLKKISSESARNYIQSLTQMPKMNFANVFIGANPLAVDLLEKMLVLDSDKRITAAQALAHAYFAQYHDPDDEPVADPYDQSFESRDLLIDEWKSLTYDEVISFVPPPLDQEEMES", "test": "p38a/PRAK biochemical assay: activation of PRAK by p38, FITC-HSP27 peptide phosphorylation (IMAP FP)", "conditions": "10-point 1:3 dilution, top dose 300 μM; 60 pM active p38a, 1 nM inactive PRAK, 10 μM ATP, 2 h incubation; read-out: p38a/PRAK Enzyme pIC50 (converted)", "procedure,_shortened": "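GST-tagged MK2 (F46–H400) and PRAK (M1–Q471), expressed in E. coli, activated by p38 and phosphorylate FITC-HSP27 peptide over 2 h with compound; readout by IMAP fluorescence polarisation (ex 485/em 528 nm). Ten-point 1:3 dilutions, top dose 1 μM for MK2 and 300 μM for PRAK. IC50 after vehicle normalisation; selectivity = IC50(PRAK)/IC50(MK2).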"}, "p38a/MK2": {"molecular_target": "p38a/MK2 (Homo sapiens (Human), UniProt P49137+Q16539)", "sequence (P49137 46-400)": "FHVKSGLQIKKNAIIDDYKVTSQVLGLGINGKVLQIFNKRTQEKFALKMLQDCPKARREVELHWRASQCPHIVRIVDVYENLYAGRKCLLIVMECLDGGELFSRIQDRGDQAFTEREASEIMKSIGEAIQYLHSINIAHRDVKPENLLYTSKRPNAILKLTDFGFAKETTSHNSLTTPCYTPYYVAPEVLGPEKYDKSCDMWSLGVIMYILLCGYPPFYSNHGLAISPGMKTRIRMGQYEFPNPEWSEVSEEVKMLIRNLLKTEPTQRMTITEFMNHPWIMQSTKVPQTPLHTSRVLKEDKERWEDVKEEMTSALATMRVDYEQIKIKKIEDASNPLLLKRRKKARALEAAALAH", "sequence (Q16539 whole entry)": "as the sequence (Q16539 whole entry) above", "test": "p38a/MK2 biochemical assay: activation of MK2 by p38, FITC-HSP27 peptide phosphorylation (IMAP FP)", "conditions": "10-point 1:3 dilution, top dose 10 μM; 60 pM active p38a, 1 nM inactive MK2, 10 μM ATP, 2 h incubation"}},
  "data": [
    {"smiles": "Cc1cnc(-c2cccc([C@](C)(O)CO)n2)cc1-n1c(C)cc(OCc2ncc(F)cc2F)c(Cl)c1=O", "note": "(atropisomer, axis not shown) [Example 14, 3-chloro-4-[(3,5-difluoropyridin-2-yl)methoxy]-2′-[6-(1,2-dihydroxypropan-2-yl)pyridin-2-yl]-5′,6-dimethyl-[1,4′-bipyridin]-2-one]", "values": [
      {"measurement": "IC50", "setting": "p38a/PRAK", "value": 20, "unit": "µM"},
      {"measurement": "p38a/MK2 (10 μM) Enzyme pIC50", "setting": "p38a/MK2", "value": 7.7}
    ]}
  ]
}
